In patent publication US20240336571A1, “NOVEL CYCLOPROPYL COMPOUNDS” (ICAGEN, LLC, priority 2021, published 2024):

Biological target: human Kv7.2 (Homo sapiens (Human), UniProt O43526)
Assay: SyncroPatch 384 electrophysiology, activation of Kv7.2 in CHO cells
Format: cell-based
Conditions: for EC50: CHO cells stably expressing human Kv7.2, potassium current at -90 mV repolarizing step, in presence of zinc pyrithione; for Emax: CHO
Description: The potency of Kv7 potentiators was determined using the SyncroPatch 384 (Nanion) high throughput electrophysiology platform.
CHO cells stably expressing either human Kv7.2, Kv7.4 or Kv7.5/7.3 under a constitutive CMV promoter were used for these studies. Cells were maintained in F12 Hams+1 mM L-glutamine (Hyclone) supplemented with 10% FBS (Sigma), 0.3×NEAA (Non-essential Gamino-acids) and 400 ug/ml G418 at 37° C. in 5% CO2. Cells were cultured in T-225 flasks (Nunc) for 2-3 days to reach 85-95% confluence prior to electrophysiological recording.
Earle's balanced salt solution (in mM): 135 NaCl, 5.4 KCl, 5 Glucose, 2 CaCl2, 1 MgCl2, 5 HEPES, pH 7.4. Seal enhancer solution (in mM): 90 NaCl, 3 KCl, 35 CaCl2, 10 MgCl2, 10 HEPES, pH 7.4. Extracellular recording solution (in mM): 71 NaCl, 70 NMDG, 13 KCl, 5 Glucose, 2 CaCl2, 1 MgCl2, 10 HEPES, pH 7.4. Intracellular recording solution (in mM): 130 KF, 20 KCl, 4 EGTA, 10 HEPES, 2 EDTA, 0.01 Escin, pH 7.2.
Cells were harvested for electrophysiological recording upon reaching appropriate confluence. Cells were first washed in DPBS (Hyclone, Cat #SH30028.03) and then 2 ml of Accutase (MP Biomedicals #1000449) was added at 28° C. until ˜90% of cells were suspended. F12 HAM's media+1 mM L-glutamine (Hyclone, SH30026.02) was then added to the flask to dilute the accutase. Cells were then triturated until a single cell suspension was achieved, a cell count was performed, and cells were centrifuged for 2 min. at 1,000 rpm. Media was then aspirated, and cells were resuspended in Earle's balanced salt solution to a concentration of 0.75×10^6 cells/ml and allowed to recover for 25 min at 10° C.
At the beginning of each assay, 20 μl of cell suspension was dispensed into each well of a multi-hole 384-well SyncroPatch chip by the onboard pipettor. Cell sealing was initiated, and seal enhancer solution was added to facilitate seal formation. Upon completion of sealing, cells were washed 3 times with extracellular recording solution and the assay voltage protocol was started. Human Kv7.2, Kv7.4 or Kv7.5/7.3 channels were evaluated using a voltage protocol in which cells were voltage-clamped at a holding potential of −60 mV. Potassium currents were continuously activated with a series of three voltage steps to −30 mV for 3 seconds, 40 mV for 1 second and −90 mV for 4 seconds with 12 seconds between successive voltage sweeps. Potassium currents were measured from the −90 mV repolarizing step. Baseline current was assessed for 3.5 minutes prior to the addition of 5.6 μM zinc pyrithione (1 μM for Kv7.4). Kv7.2, Kv7.4 or Kv7.5/7.3 current in the presence of zinc pyrithione was acquired over five minutes to allow channels to reach steady state activity prior to addition of test agents. Channel activity was monitored for three minutes preceding the addition of 30 μM ML-213 (3 minutes) to achieve maximum activation. 150 mM TEA with 10 μM XE-991 was applied for 2 minutes to measure the leak current during maximum inhibition of Kv7.2, Kv7.4 or Kv7.5/7.3 channels.
Data were collected on the SyncroPatch platform using PatchControl software (Nanion) and processed and analyzed using DataControl Software (Nanion). Percent activation was calculated from potassium current as follows: The average current for the 5 sweeps in the presence of zinc pyrithione immediately preceding test agent addition was taken as the ‘control’ data. Likewise, the average potassium current in the presence of test agents 5 sweeps immediately preceding addition of 30 μM ML-213 was determined for ‘drug’ data. The average potassium current 5 sweeps immediately prior to addition of 150 mM TEA+10 μM XE-991 was determined for ‘max activation’ data while average currents from 5 sweeps immediately following addition of TEA was determined for ‘max inhibition’ data. Percent activation for each of the 384-wells of a sealchip was calculated as ((‘drug’−‘max inhibition’)/(‘max activation’−‘max inhibition’))*100 with Pipeline Pilot (Accelrys). […]

[1] = Kv7.2 activation max %, relative to 30 μM ML-213 max activation

Row | Compound | EC50 [nM] | Kv7.2 Emax [1] [%] | Emax [1] [%]
1 | 1-[(1S,2R)-2-cyclohexylcyclopropyl]-3-[(2-imidazol-1-ylpyridin-4-yl)methyl]urea [Example 15] | 1570 | 56 | –
2 | COC[C@@H](Oc1cc(CNC(=O)N[C@@H]2C[C@H]2C(F)(F)F)ccn1)C(F)(F)F (mixture of isomers) [Example 53, 1-[[2-[(2R)-1,1,1-trifluoro-3-methoxypropan-2-yl]oxypyridin-4-yl]methyl]-3-[rac-(1R,2R)-2-(trifluoromethyl)cyclopropyl]urea] | 360 | – | 69
3 | O=C(NCc1ccnc(-n2cccn2)c1)N[C@@H]1C[C@H]1C1CCCCC1 (racemic) [Example 2, 1-[rac-(1R,2S)-2-cyclohexylcyclopropyl]-3-[(2-pyrazol-1-ylpyridin-4-yl)methyl]urea] | 570 | – | 84
4 | O=C(NCc1cccc(Cl)n1)N[C@@H]1C[C@H]1C1CCCCC1 (racemic) [Example 3, 1-[(6-chloropyridin-2-yl)methyl]-3-[rac-(1R,2S)-2-cyclohexylcyclopropyl]urea] | 1540 | – | 77
5 | CC(C)c1nccc(CNC(=O)N[C@@H]2C[C@H]2C2CCCCC2)n1 (racemic) [Example 4, 1-[(2-propan-2-ylpyrimidin-4-yl)methyl]-3-[rac-(1R,2S)-2-cyclohexylcyclopropyl]urea] | 4400 | – | 71
6 | COc1cc(CNC(=O)N[C@@H]2C[C@H]2c2ccccc2)ccn1 (racemic) [Example 5, 1-[(2-methoxypyridin-4-yl)methyl]-3-[rac-(1R,2S)-2-phenylcyclopropyl]urea] | 3750 | – | 44
7 | N#Cc1cc(CNC(=O)N[C@@H]2C[C@H]2c2ccccc2)ccn1 (racemic) [Example 8, 1-[(2-cyanopyridin-4-yl)methyl]-3-[rac-(1R,2S)-2-phenylcyclopropyl]urea] | 4180 | – | 40
8 | O=C(NCc1ccnc(-n2cccn2)c1)N[C@@H]1C[C@H]1c1ccccc1 (racemic) [Example 12, 1-[(2-pyrazol-1-ylpyridin-4-yl)methyl]-3-[rac-(1R,2S)-2-phenylcyclopropyl]urea] | 670 | – | 69
9 | O=C(NCc1ccnc(Cl)c1)N[C@@H]1C[C@H]1C1CCCCC1 (racemic) [Example 17, 1-[(2-chloropyridin-4-yl)methyl]-3-[rac-(1R,2S)-2-cyclohexylcyclopropyl]urea] | 1760 | – | 61
10 | O=C(NCc1ccnc(-c2cnco2)c1)N[C@@H]1C[C@H]1C1CCCCC1 (racemic) [Example 23, 1-[[2-(1,3-oxazol-5-yl)pyridin-4-yl]methyl]-3-[rac-(1R,2S)-2-cyclohexylcyclopropyl]urea] | 920 | – | 63
11 | O=C(NCc1ccnc(-n2cnc(C(F)(F)F)c2)c1)N[C@@H]1C[C@H]1C1CCCCC1 (racemic) [Example 24, 1-[rac-(1R,2S)-2-cyclohexylcyclopropyl]-3-[[2-[4-(trifluoromethyl)imidazol-1-yl]pyridin-4-yl]methyl]urea] | 160 | – | 45
12 | C[C@@]1(NC(=O)NCc2ccnc(OC(F)F)c2)C[C@H]1c1ccccc1 (racemic) [Example 36, 1-[[2-(difluoromethoxy)pyridin-4-yl]methyl]-3-[rac-(1R,2S)-1-methyl-2-phenylcyclopropyl]urea] | 120 | – | 69
13 | O=C(NCc1ccnc(-c2cnsc2)c1)N[C@@H]1C[C@H]1C1CCCCC1 (racemic) [Example 40, 1-[rac-(1R,2S)-2-cyclohexylcyclopropyl]-3-[[2-(1,2-thiazol-4-yl)pyridin-4-yl]methyl]urea] | 780 | – | 57
14 | C[C@H]1[C@H](NC(=O)NCc2ccnc(OC(F)F)c2)C1(F)F (racemic) [Example 42, 1-[[2-(difluoromethoxy)pyridin-4-yl]methyl]-3-[rac-(1R,3R)-2,2-difluoro-3-methylcyclopropyl]urea] | 1030 | – | 58
15 | O=C(NCc1ccnc(OC(F)F)c1)N[C@@H]1C[C@H]1C1CCCO1 (mixture of isomers) [Example 43, 1-[[2-(difluoromethoxy)pyridin-4-yl]methyl]-3-[rac-(1R,2R)-2-(oxolan-2-yl)cyclopropyl]urea] | 8010 | – | 61
16 | CC(F)(F)[C@@H]1C[C@H]1NC(=O)NCc1ccnc(OC(F)F)c1 (racemic) [Example 44, 1-[[2-(difluoromethoxy)pyridin-4-yl]methyl]-3-[rac-(1R,2R)-2-(1,1-difluoroethyl)cyclopropyl]urea] | 330 | – | 40
17 | C[C@@H]1C[C@H]1NC(=O)NCc1ccnc(OC(F)F)c1 (racemic) [Example 46, 1-[[2-(difluoromethoxy)pyridin-4-yl]methyl]-3-[rac-(1R,2R)-2-methylcyclopropyl]urea] | 900 | – | 51
18 | C[C@]1(C(F)(F)F)C[C@@H]1NC(=O)NCc1ccnc(OC(F)F)c1 (racemic) [Example 47, 1-[[2-(difluoromethoxy)pyridin-4-yl]methyl]-3-[rac-(1R,2R)-2-methyl-2-(trifluoromethyl)cyclopropyl]urea] | 50 | – | 77
19 | [2H]C([2H])(NC(=O)N[C@@H]1C[C@H]1C(F)(F)F)c1ccnc(OC(F)F)c1 (racemic) [Example 50, 1-[dideuterio-[2-(difluoromethoxy)pyridin-4-yl]methyl]-3-[rac-(1R,2R)-2-(trifluoromethyl)cyclopropyl]urea] | 620 | – | 47
20 | O=C(NCc1cc(OCC(F)(F)F)ncn1)N[C@@H]1C[C@H]1C(F)(F)F (racemic) [Example 51, 1-[rac-(1R,2R)-2-(trifluoromethyl)cyclopropyl]-3-[[6-(2,2,2-trifluoroethoxy)pyrimidin-4-yl]methyl]urea] | 280 | – | 52
21 | C[C@@H](NC(=O)N[C@@H]1C[C@H]1c1ccccc1)c1ccnc(OC(F)F)c1 (stereo in doubt) [Example 38] | 3810 | – | 42
22 | N#Cc1ccnc(CNC(=O)N[C@@H]2C[C@H]2c2ccccc2)c1 [Example 1, 1-[(4-cyanopyridin-2-yl)methyl]-3-[(1R,2S)-2-phenylcyclopropyl]urea] | 4680 | – | 73
23 | CC(C)Oc1cc(CNC(=O)N[C@@H]2C[C@H]2c2ccccc2)ccn1 [Example 6, 1-[(1R,2S)-2-phenylcyclopropyl]-3-[(2-propan-2-yloxypyridin-4-yl)methyl]urea] | 660 | – | 64
24 | O=C(NCc1ccnc(OC(F)F)c1)N[C@@H]1C[C@H]1c1ccccc1 [Example 7, 1-[[2-(difluoromethoxy)pyridin-4-yl]methyl]-3-[(1R,2S)-2-phenylcyclopropyl]urea] | 100 | – | 71
25 | COc1cc(CNC(=O)N[C@@H]2C[C@H]2c2ccccc2)ccn1 [Example 9, 1-[(2-methoxypyridin-4-yl)methyl]-3-[(1R,2S)-2-phenylcyclopropyl]urea] | 3410 | – | 78
26 | N#Cc1cc(CNC(=O)N[C@@H]2C[C@H]2c2ccccc2)ccn1 [Example 10, 1-[(2-cyanopyridin-4-yl)methyl]-3-[(1R,2S)-2-phenylcyclopropyl]urea] | 1190 | – | 43
